Measurements published in patent publication US11629171B2, “Beta-hairpin peptidomimetics” (POLYPHOR AG, priority 2017, dated 2023).
≈ marks a conversion by molar mass, not a printed value. Where a SMILES comes first, the peptide text is derived from it. Bridges are numbered along the chain shown (N, C = ends). Roman numbers before positions name the chains, in order. [ ]: non-standard residue; d: D form. Thr(ol) = C[C@@H](O)[C@H](N)CO; Tle = CC(C)(C)[C@H](N)C(=O)O; Hiv = CC(C)[C@H](O)C(=O)O; dDab = NCC[C@@H](N)C(=O)O; hSer = N[C@@H](CCO)C(=O)O; Dab = NCC[C@H](N)C(=O)O; Dap = NC[C@H](N)C(=O)O

Key:
Format in all cases: cell-based
[1] = system: Acinetobacter baumannii 872842; conditions: 872842
How it was run: (§1)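 MIC in μg/mL, read as no visible growth after 18-20 hours at 35° C. Peptides were serially diluted two-fold in MH-II broth plus P-80 (0.002% final, v/v) and inoculated at about 10^6 CFU/mL following the CLSI broth microdilution standard.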

[2] = system: Acinetobacter baumannii DSM 30008; conditions: DSM 30008
How it was run: as §1

[3] = system: Enterobacter cloacae 848840; conditions: 848840
How it was run: as §1

Escherichia coli 926415 = conditions: 926415
How it was run: as §1

[4] = system: Escherichia coli ATCC 25922; conditions: ATCC 25922
How it was run: as §1

[5] = system: Klebsiella pneumoniae 968733; conditions: 968733
How it was run: as §1

[6] = system: Klebsiella pneumoniae SSI #3010; conditions: SSI #3010
How it was run: as §1

[7] = system: Pseudomonas aeruginosa ATCC 27853; conditions: ATCC 27853
How it was run: as §1

[8] = system: human red blood cells (hRBC); assay: Hemolysis; conditions: red cells of human, 1 h, 200
How it was run: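 hRBC washed 4× in PBS; 200 μg/mL peptide + 20% (v/v) hRBC, 1 h, 37° C, 300 rpm. Spin, supernatant ~7.5-fold diluted, OD540 blank corrected. % hemolysis = OD540 peptide / OD540 Triton X-100 × 100.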

Compound | MIC [1] [µg/mL] | MIC [2] [µg/mL] | MIC [3] [µg/mL] | MIC (Escherichia coli 926415) [µg/mL] | MIC [4] [µg/mL] | MIC [5] [µg/mL] | MIC [6] [µg/mL] | MIC [7] [µg/mL] | Acinetobacter baumannii DSM 30008 MIC [2] [µg/mL] | Escherichia coli ATCC 25922 MIC [4] [µg/mL] | Klebsiella pneumoniae SSI #3010 MIC [6] [µg/mL] | Pseudomonas aeruginosa ATCC 27853 MIC [7] [µg/mL] | Hemolysis at 200 μg/mL [8] [%]
CC[C@H](C)[C@@H]1NC(=O)[C@H](CO)NC(=O)[C@H](Cc2c[nH]c3ccccc23)NC(=O)[C@H](CO)NC(=O)[C@@H](CCN)NC(=O)[C@H](CCC(=O)N[C@@H](CCN)C(=O)N[C@H](C(=O)N[C@@H](CN)C(=O)N[C@H]2CCNC(=O)[C@H]([C@@H](C)O)NC(=O)[C@H](CCN)NC(=O)[C@H](CCN)NC(=O)[C@H](CC(C)C)NC(=O)[C@@H](CC(C)C)NC(=O)[C@H](CCN)NC2=O)[C@@H](C)O)NC(=O)[C@H](CCN)NC(=O)[C@H](Cc2ccc(O)cc2)NC(=O)[C@@H](NC(=O)[C@@H](NC(C)=O)C(C)C)CCNC(=O)CC[C@@H](C(=O)N[C@@H](CO)C(N)=O)NC1=O [Ex. 324] (I: Ac-V[Dab]Y[Dab]E[dDab]SWSIES-NH2 / II: [Dab]T[Dap][Dab][Dab][dL]L[Dab][Dab]T; lactam I:2-I:11, II:4-II:C; amide I:5-II:N) | 0.125 (≈ 0.0517 µM) |  | 0.125 (≈ 0.0517 µM) | 0.125 (≈ 0.0517 µM) |  | 0.5 (≈ 0.207 µM) |  |  | 0.0625 | 0.0625 | 0.0625 | 0.0625 | <1
CC(=O)N[C@@H](CCN)C(=O)N[C@H](C(=O)N[C@H]1CSSC[C@@H](C(=O)N[C@H](C(=O)N[C@@H](C)C(=O)N[C@H](C(=O)N[C@@H](CCC(=O)O)C(N)=O)C(C)C)C(C)(C)C)NC(=O)[C@H](Cc2c[nH]c3ccccc23)NC(=O)[C@H](CO)NC(=O)[C@@H](CCN)NC(=O)[C@H](CCC(=O)N[C@@H](CCN)C(=O)N[C@H](C(=O)N[C@@H](CN)C(=O)N[C@H]2CCNC(=O)[C@H]([C@@H](C)O)NC(=O)[C@H](CCN)NC(=O)[C@H](CCN)NC(=O)[C@H](CC(C)C)NC(=O)[C@@H](CC(C)C)NC(=O)[C@H](CCN)NC2=O)[C@@H](C)O)NC(=O)[C@H](CN)NC(=O)[C@H](Cc2ccc(O)cc2)NC1=O)C(C)C [Ex. 246] (I: Ac-[Dab]VCY[Dap]E[dDab]SWC[Tle]AVE-NH2 / II: [Dab]T[Dap][Dab][Dab][dL]L[Dab][Dab]T; disulfide I:3-I:10; amide I:6-II:N; lactam II:4-II:C) | 4 (≈ 1.52 µM) | 0.5 (≈ 0.191 µM) | 2 (≈ 0.762 µM) | 2 (≈ 0.762 µM) | 0.25 (≈ 0.0953 µM) | 4 (≈ 1.52 µM) | 0.25 (≈ 0.0953 µM) | 0.25 (≈ 0.0953 µM) |  |  |  |  | <1
CC(C)C[C@@H]1NC(=O)[C@@H](CC(C)C)NC(=O)[C@H](CCN)NC(=O)[C@@H](NC(=O)[C@H](CN)NC(=O)[C@@H](NC(=O)[C@H](CCN)NC(=O)CC[C@@H]2NC(=O)[C@H](CCN)NC(=O)[C@H](Cc3ccc(O)cc3)NC(=O)[C@@H](NC(=O)[C@@H](O)C(C)C)CCN(C)C(=O)C[C@@H](C(=O)N[C@@H](CO)C(N)=O)NC(=O)[C@H](C(C)C)NC(=O)[C@H](CO)NC(=O)[C@H](Cc3c[nH]c4ccccc34)NC(=O)[C@H](CO)NC(=O)[C@@H](CCN)NC2=O)[C@@H](C)O)CCNC(=O)[C@H]([C@@H](C)O)NC(=O)[C@H](CCN)NC(=O)[C@H](CCN)NC1=O [Ex. 304] | 1 (≈ 0.423 µM) |  | 2 (≈ 0.846 µM) | 2 (≈ 0.846 µM) |  | 4 (≈ 1.69 µM) |  |  | 0.25 | 0.125 | 0.0625 | 0.25 | <1
CC(C)C[C@@H]1NC(=O)[C@@H](CC(C)C)NC(=O)[C@H](CCN)NC(=O)[C@@H](NC(=O)[C@H](CCN)NC(=O)[C@@H](NC(=O)[C@H](CCN)NC(=O)CC[C@@H]2NC(=O)[C@@H](NC(=O)[C@H](Cc3ccc(O)cc3)NC(=O)[C@H](CCN)NC(=O)[C@@H](O)C(C)C)CSSC[C@@H](C(=O)N[C@H](C(=O)N[C@@H](CCC(=O)O)C(=O)N[C@H](CO)[C@@H](C)O)C(C)(C)C)NC(=O)[C@H](Cc3c[nH]c4ccccc34)NC(=O)[C@H]([C@@H](C)O)NC(=O)[C@@H](CCN)NC2=O)[C@@H](C)O)CCNC(=O)[C@H]([C@@H](C)O)NC(=O)[C@H](CCN)NC(=O)[C@H](CCN)NC1=O [Ex. 191] (I: H-[Hiv][Dab]YCE[dDab]TWC[Tle]E[Thr(ol)] / II: [Dab]T[Dab][Dab][Dab][dL]L[Dab][Dab]T; disulfide I:4-I:9; amide I:5-II:N; lactam II:4-II:C) | 0.5 (≈ 0.205 µM) | 0.125 (≈ 0.0512 µM) | 0.5 (≈ 0.205 µM) | 1 (≈ 0.409 µM) | 0.125 (≈ 0.0512 µM) | 2 (≈ 0.819 µM) | 0.25 (≈ 0.102 µM) | 0.25 (≈ 0.102 µM) |  |  |  |  | 1
CC(=O)N[C@@H](CCN)C(=O)N[C@H](C(=O)N[C@H]1CSSC[C@@H](C(=O)N[C@@H](CO)C(=O)N[C@@H](CCC(=O)O)C(N)=O)NC(=O)[C@H](C(C)(C)C)NC(=O)[C@H](CO)NC(=O)[C@H](Cc2c[nH]c3ccccc23)NC(=O)[C@H](CCN)NC(=O)[C@@H](CCN)NC(=O)[C@H](CCC(=O)N[C@@H](CCN)C(=O)N[C@H](C(=O)N[C@@H](CN)C(=O)N[C@H]2CCNC(=O)[C@H]([C@@H](C)O)NC(=O)[C@H](CCN)NC(=O)[C@H](CCN)NC(=O)[C@H](CC(C)C)NC(=O)[C@@H](CC(C)C)NC(=O)[C@H](CCN)NC2=O)[C@@H](C)O)NC(=O)[C@H](CO)NC(=O)[C@H](Cc2ccc(O)cc2)NC1=O)C(C)C [Ex. 243] (I: Ac-[Dab]VCYSE[dDab][Dab]WS[Tle]CSE-NH2 / II: [Dab]T[Dap][Dab][Dab][dL]L[Dab][Dab]T; disulfide I:3-I:12; amide I:6-II:N; lactam II:4-II:C) | 0.0625 (≈ 0.0237 µM) | 0.0625 (≈ 0.0237 µM) | 0.25 (≈ 0.0946 µM) | 0.125 (≈ 0.0473 µM) | 0.0625 (≈ 0.0237 µM) | 0.125 (≈ 0.0473 µM) | 0.0625 (≈ 0.0237 µM) | 0.25 (≈ 0.0946 µM) |  |  |  |  | <1

Continued, in another order:

MIC [1] [µg/mL] | MIC [2] [µg/mL] | MIC [3] [µg/mL] | MIC (Escherichia coli 926415) [µg/mL] | MIC [4] [µg/mL] | MIC [5] [µg/mL] | MIC [6] [µg/mL] | MIC [7] [µg/mL] | Acinetobacter baumannii DSM 30008 MIC [2] [µg/mL] | Escherichia coli ATCC 25922 MIC [4] [µg/mL] | Klebsiella pneumoniae SSI #3010 MIC [6] [µg/mL] | Pseudomonas aeruginosa ATCC 27853 MIC [7] [µg/mL] | Compound | Hemolysis at 200 μg/mL [8] [%]
0.03125 (≈ 0.013 µM) | 0.03125 (≈ 0.013 µM) | 0.125 (≈ 0.0518 µM) | 0.0625 (≈ 0.0259 µM) | 0.03125 (≈ 0.013 µM) | 0.0625 (≈ 0.0259 µM) | 0.0625 (≈ 0.0259 µM) | 0.0625 (≈ 0.0259 µM) |  |  |  |  | CC[C@H](C)[C@@H]1NC(=O)[C@H](CO)NC(=O)[C@H](Cc2c[nH]c3ccccc23)NC(=O)[C@H](CCN)NC(=O)[C@@H](CCN)NC(=O)[C@H](CCC(=O)N[C@@H](CCN)C(=O)N[C@H](C(=O)N[C@@H](CN)C(=O)N[C@H]2CCNC(=O)[C@H]([C@@H](C)O)NC(=O)[C@H](CCN)NC(=O)[C@H](CCN)NC(=O)[C@H](CC(C)C)NC(=O)[C@@H](CC(C)C)NC(=O)[C@H](CCN)NC2=O)[C@@H](C)O)NC(=O)[C@H](CO)NC(=O)[C@H](Cc2ccc(O)cc2)NC(=O)[C@@H](NC(=O)[C@@H](NC(C)=O)C(C)C)CSSC[C@@H](C(=O)N[C@@H](CO)C(N)=O)NC1=O [Ex. 253] (I: Ac-VCYSE[dDab][Dab]WSICS-NH2 / II: [Dab]T[Dap][Dab][Dab][dL]L[Dab][Dab]T; disulfide I:2-I:11; amide I:5-II:N; lactam II:4-II:C) | 2
0.0625 (≈ 0.0283 µM) | 0.0625 (≈ 0.0283 µM) | 0.125 (≈ 0.0565 µM) | 0.125 (≈ 0.0565 µM) | 0.0625 (≈ 0.0283 µM) | 0.5 (≈ 0.226 µM) | 0.25 (≈ 0.113 µM) | 0.5 (≈ 0.226 µM) |  |  |  |  | CC(C)C[C@@H]1NC(=O)[C@H](CCN)NC(=O)[C@H](CCN)NC(=O)[C@H](CC(C)C)NC(=O)[C@@H](CC(C)C)NC(=O)[C@H](CCN)NC(=O)[C@@H](NC(=O)[C@@H](CCN)NC(=O)CC[C@@H]2NC(=O)[C@H](CCN)NC(=O)[C@H](Cc3ccc(O)cc3)NC(=O)[C@@H](NC(=O)[C@@H](O)C(C)C)CSSC[C@@H](C(=O)N[C@H](CO)[C@@H](C)O)NC(=O)[C@H](C(C)(C)C)NC(=O)[C@H](CO)NC(=O)[C@H](Cc3c[nH]c4ccccc34)NC(=O)[C@H](CCO)NC(=O)[C@@H](CCN)NC2=O)CCNC1=O [Ex. 127] (I: H-[Hiv]CY[Dab]E[dDab][hSer]WS[Tle]C[Thr(ol)] / II: [dDab][Dab][Dab][dL]L[Dab][Dab]L; disulfide I:2-I:11; amide I:5-II:N; lactam II:2-II:C) | 2
0.5 (≈ 0.208 µM) |  | 1 (≈ 0.417 µM) | 0.5 (≈ 0.208 µM) |  | 1 (≈ 0.417 µM) |  |  | 0.125 | 0.0625 | 0.25 | 0.125 | CC(=O)N[C@H](C(=O)N[C@H]1CSSC[C@@H](C(=O)N[C@@H](CO)C(N)=O)NC(=O)[C@H](C(C)C)NC(=O)[C@H](CO)NC(=O)[C@H](Cc2c[nH]c3ccccc23)NC(=O)[C@H](CO)NC(=O)[C@@H](CCN)NC(=O)[C@H](CCC(=O)N[C@@H](CCN)C(=O)N[C@@H](CCO)C(=O)N[C@@H](CN)C(=O)N[C@H]2CCNC(=O)[C@H]([C@@H](C)O)NC(=O)[C@H](CCN)NC(=O)[C@H](CCN)NC(=O)[C@H](CC(C)C)NC(=O)[C@@H](CC(C)C)NC(=O)[C@H](CCN)NC2=O)NC(=O)[C@H](CCN)NC(=O)[C@H](Cc2ccc(O)cc2)NC1=O)C(C)C [Ex. 308] (I: Ac-VCY[Dab]E[dDab]SWSVCS-NH2 / II: [Dab][hSer][Dap][Dab][Dab][dL]L[Dab][Dab]T; disulfide I:2-I:11; amide I:5-II:N; lactam II:4-II:C) | <1
